Columns and labels:
[1] = Pharmacokinetics of CM352 in rats after intravenous administration; format: in vivo; details: rat, 1 mg/kg intravenous
Description: CM352 solutions were prepared by dissolving the solid in saline. A drug dosage of 1 mg/kg was administered as a single intravenous injection in the femoral vein. Blood was collected into citrated tubes, and plasma was obtained by 2‐step centrifugation: first at 600 g for 10 minutes and then at 18 000 g for 2 minutes. Plasma samples were stored at −80°C until analysis. CM352 was measured in plasma samples using a Xevo‐TQ MS triple quadrupole mass spectrometer with an electrospray ionization source and an Acquity UPLC (Waters, Manchester, UK) as previously reported.20 Briefly, after chromatographic separation, the compound was detected using multiple reaction monitoring. Quantification was achieved by external calibration using matrix‐matched standards prepared by adding the appropriate volume of diluted solutions of the compound (in methanol/water 50:50, v:v) to aliquots of 50 μL blank plasma. Pharmacokinetic parameters were obtained by fitting the blood concentration‐time data to a bicompartmental model with the WinNonlin software (Pharsight, Mountain View, CA).

Plasma protein binding = format: in vitro ADME; details: rat, read-out: Plasma prot binding (% unbound)
MMP‐12 = target: T1, MMP‐12 (Homo sapiens, UniProt P39900); experiment: MMP enzyme activity assay; format: biochemical; details: read-out: MMP Inhibitory Activity (IC50), MMP‐12
T1 construct: GenScript (contract testing)
T1 sequence (P39900 106-470, species assumed): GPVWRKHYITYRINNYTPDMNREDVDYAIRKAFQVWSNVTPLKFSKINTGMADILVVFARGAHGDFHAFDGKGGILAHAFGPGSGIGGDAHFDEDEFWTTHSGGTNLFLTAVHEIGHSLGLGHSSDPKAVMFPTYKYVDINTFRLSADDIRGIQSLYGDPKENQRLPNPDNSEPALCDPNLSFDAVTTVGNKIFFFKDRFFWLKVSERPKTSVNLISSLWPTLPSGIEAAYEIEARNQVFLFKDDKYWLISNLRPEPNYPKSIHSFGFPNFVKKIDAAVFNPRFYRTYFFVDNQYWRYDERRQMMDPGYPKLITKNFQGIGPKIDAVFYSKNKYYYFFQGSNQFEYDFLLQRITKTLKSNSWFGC
Description: […]. Protease stock solutions (10 mmol/L) were diluted with assay buffer to make final test solutions containing no more than 2.0% DMSO. The samples were dispensed into plates; substrate was added and read with PHERAstar PLUS (BMG Labtech, Ortenberg, Germany) plate reader.

[2] = target: bacterial collagenase type VII; experiment: Collagenase activity assay (FALGPA substrate); format: biochemical; details: tested 10 nmol/L to 10 μmol/L; no significant effect
Description: Enzymatic assay of collagenase was performed using FALGPA (Sigma‐Aldrich Corp, St. Louis, MO) as substrate, according to the manufacturer's recommendations. Briefly, proteolysis of 1 mmol/L FALGPA by 2 U/mL bacterial collagenase type VII (Sigma‐Aldrich Corp, St. Louis, MO) in reaction buffer (50 mmol/L Tricine; 10 mmol/L CaCl2; 400 mmol/L NaCl) was monitored spectrophotometrically (345 nm) for 5 minutes, in the presence of CM352, phenanthroline, or vehicle.

[3] = tested on: rat model of collagenase‐induced ICH; experiment: Cylinder test (laterality index) in ICH rat model; format: in vivo; details: 24 hours and 14 days, all P<0.01 vs control
Description: Following STAIR criteria, animal models must show neurological and functional deficits in line with the produced lesion. The model of collagenase‐induced hemorrhage primarily damages the striatum, producing a small forelimb paresis contralateral to the lesion. Sensorimotor deficits after ischemic insult were assessed using the cylinder test, as previously described.23 This test evaluates limb asymmetry during the exploratory activity. Each animal was put in a cylinder with a 20‐cm‐diameter transparent base. A video camera was located under this transparent cylinder for recording the vertical exploratory movements of the animal with its anterior limbs for 2 to 10 minutes, depending on movement grade. For image recording and analysis, VirtulDub software was used. Analyzed behaviors were the numbers of times that the animal touched the cylinder wall and independent use of each limb in contact with the cylinder wall in each upward movement. The laterality index was calculated (the number of times that the animal touched the cylinder with the right leg during the ascendant movement by the number of times that the animals touched with each leg). […] An experienced investigator, blind to treatment and neuroimaging data, analyzed the behavioral tests.

[4] = tested on: rat model of collagenase‐induced ICH; experiment: Bederson scale in ICH rat model; format: in vivo
Description: On the other hand, neurological deficit was evaluated with the Bederson scale,24 ranging from 0 (asymptomatic) to 8 (severe deficit), which included the following items: spontaneous movement, spontaneous rotation, spontaneous flexion of the contralateral forelimb, edge detection, turn after tail suspension, reflection of protection. Behavioral studies were performed at baseline (before surgery) and at 24 hours and 14 days after ICH during the darkness cycle. An experienced investigator, blind to treatment and neuroimaging data, analyzed the behavioral tests.

interleukin‐6 = experiment: Plasma interleukin‐6 ELISA after ICH; format: in vivo, rat; details: 1 mg/kg iv 1 hour after collagenase; 3 hours, P<0.05 vs control
Description: (§1) Blood samples (0.5 mL) were drawn from the tail vein before surgery, immediately after surgery, and at 1 hour, 3 hours, 24 hours, and 14 days. Citrate or EDTA plasma was obtained by centrifugation, and samples were stored at −80°C. Enzyme‐linked immunosorbent assay was used to measure interleukin‐6 (IL‐6, ref. KRC0061, Life Technologies, Thermo Fisher Scientific, Waltham, MA), cellular fibronectin (ref. MBS007311, MyBioSource, San Diego, CA), and thrombin‐antithrombin complex (Enzygnost TAT, ref. OWMG15, Siemens Healthcare, Erlangen, Germany) in plasma, as biomarkers of inflammation, cellular damage, and hypercoagulability, respectively. The intra‐assay and interassay coefficients of variation for all molecular markers were <10%.

cellular fibronectin = experiment: Plasma cellular fibronectin ELISA after ICH; format: in vivo, rat; details: 1 mg/kg iv after ICH; data not shown
Description: as §1

[5] = tested on: thrombin‐antithrombin complex; experiment: Plasma thrombin‐antithrombin complex ELISA after ICH; format: in vivo, rat; details: 1 mg/kg iv after ICH; data not shown
Description: as §1

[6] = Prothrombin time in plasma after ICH; format: in vivo, rat; details: percentage of the standard value, n=3
Description: Prothrombin time (PT) and activated partial thromboplastin time (aPTT) were measured with STA‐Neoplastin R and PTT reagents (STA‐Compact, Stago, Barcelona, Spain). PT results were expressed as percentage of the standard value, and aPTT results were expressed in seconds.

[7] = tested on: tissue‐type plasminogen activator–induced fibrinolysis in human blood; parameters: method as in PMID 25686022; details: read-out: effective concentration to delay lysis time by 50%; cited from earlier work
[8] = tested on: mouse model of tail bleeding; parameters: method as in PMID 25686022; details: CM352 0.01 mg/kg; cited from earlier work
[9] = tested on: wide panel of metalloenzymes, including cathepsins, caspases, kalikreins, and neutrophil proteases; parameters: method as in PMID 25686022; details: cited from earlier work

For `CNC(=O)c1ccc(Oc2ccc(S(=O)(=O)[C@]3(C(=O)NO)CCC4(CCNCC4)C3)cc2)cc1` [CM352, 4‐[4‐[[(3R)‐3‐(Hydroxycarbamoyl)‐8‐azaspiro[4.5]decan‐3‐yl]sulfonyl]phenoxy]‐N‐methylbenzamide], the Kp ([1]; brain, n=3, read-out: Brain/plasma ratio) was 0.0193, the half-life ([1]; plasma, n=3) was 1.09 h and the Cmax ([1]; plasma, n=3, read-out: Cmax (maximal plasma concentration)) was 7.8 µM. It also gave a clearance ([1]; plasma, n=3, read-out: Norm. Cl (normalized clearance) (converted)) of 7 mL/min/kg, a Vd ([1]; plasma, n=3, read-out: Norm. Vz (normalized volume of distribution)) of 0.66 L/kg and a maximal plasma concentration [1] of 7.8 µmol/L. The “time CM352 remains in blood above 10 nmol/L” value [1] was 8 h, the fraction unbound (Plasma protein binding) was 0.4 and the IC50 (MMP‐12) was 7.6 nM. The IC50 [2] was over 10000 nM, the “sensorimotor recovery (laterality index)” value ([3]; 1 mg/kg 3 hours after collagenase) was “better sensorimotor recovery” and the “sensorimotor recovery (laterality index)” value ([3]; 1 mg/kg iv 1 hour after collagenase) was “better sensorimotor recovery”. For the same molecule, the “neurological deficit (Bederson scale)” value ([4]; 1 mg/kg 3 hours after collagenase, 24 hours (P<0.01) and day 14 (P<0.05) vs control) was “better neurological function recovery”, the “neurological deficit (Bederson scale)” value ([4]; 1 mg/kg iv 1 hour after collagenase, 24 hours, P<0.01 vs control) was “better neurological functional recovery” and the “neurological deficit (Bederson scale)” value ([4]; 1 mg/kg iv 1 hour after collagenase, day 14, P<0.01 vs control) was “beneficial effect of CM352 also being very noticeable”. For the same molecule, the “circulating IL‐6 levels” value (interleukin‐6) was “significant reduction”, the “cellular fibronectin levels versus control” value (cellular fibronectin) was “no differences” and the “thrombin‐antithrombin complex levels versus control” value [5] was “no differences”. The PT ([6]; 3 H) was 62.0±2.6%, the PT ([6]; 5 H) was 63.7±4.0% and the PT ([6]; 24 H) was 65.1±7.6%. For the same molecule, the PT ([6]; Basal) was 62.7±5.1%, the EC50 [7] was 0.7 nM and the antihemorrhagic efficiency [8] was “more potent agent”. The “off‐target effect on metalloenzyme panel” value [9] was “no significant effect”.
